Laboratory results: US10583137B2, “Triazole DAGLα inhibitors” (THE SCRIPPS RESEARCH INSTITUTE, priority 2015, dated 2020)
Where two headings read alike, the source gives them in different places.

Key:
[1] = target: cannabinoid CB1 (CB1R) receptor (Homo sapiens (Human), UniProt P21554); experiment: radioligand binding assay
Protocol: (§1) Data represent average values±SEM; n=3 per group. […] Compounds 14 and 17 had minimal and negligible binding, respectively, to cannabinoid CB1 (CB1R) and CB2 (CB2R) receptors as measured with a radioligand binding assay (IC50 values>1 μM) (data not shown).

[2] = target: cannabinoid CB2 (CB2R) receptor (Homo sapiens (Human), UniProt P34972); experiment: radioligand binding assay
cannabinoid CB2 (CB2R) receptor, sequence (P34972 whole entry): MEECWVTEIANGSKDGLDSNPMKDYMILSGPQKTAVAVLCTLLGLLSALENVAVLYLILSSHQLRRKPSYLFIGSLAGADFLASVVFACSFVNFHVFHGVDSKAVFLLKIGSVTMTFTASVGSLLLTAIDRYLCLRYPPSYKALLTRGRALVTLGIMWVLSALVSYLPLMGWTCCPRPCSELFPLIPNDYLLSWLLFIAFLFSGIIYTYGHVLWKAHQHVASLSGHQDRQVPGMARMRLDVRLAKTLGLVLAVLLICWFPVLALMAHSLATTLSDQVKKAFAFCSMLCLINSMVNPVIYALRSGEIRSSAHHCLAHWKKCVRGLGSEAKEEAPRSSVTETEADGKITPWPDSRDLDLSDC
Protocol: as §1

ABHD6 [3] = target: T1, ABHD6 (Mus musculus (Mouse), UniProt Q8R2Y0); experiment: in vivo inhibition, brain tissue analyzed by ABPP; conditions: mice, intraperitoneal 3-50 mg/kg, 4 hr
T1 sequence (Q8R2Y0 whole entry): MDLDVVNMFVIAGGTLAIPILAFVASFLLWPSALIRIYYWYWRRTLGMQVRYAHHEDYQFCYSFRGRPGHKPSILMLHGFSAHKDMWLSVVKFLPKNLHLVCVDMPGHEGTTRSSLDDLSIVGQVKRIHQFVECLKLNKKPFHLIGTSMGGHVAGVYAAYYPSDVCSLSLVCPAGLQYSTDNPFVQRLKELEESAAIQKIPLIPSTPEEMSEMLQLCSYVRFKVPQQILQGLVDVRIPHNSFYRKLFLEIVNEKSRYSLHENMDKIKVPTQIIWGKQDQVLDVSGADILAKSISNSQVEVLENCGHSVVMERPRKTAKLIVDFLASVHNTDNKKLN
Protocol: (§2) Mice were administered DAGL test compounds and the activity and selectivity of compounds 14 and 17 in vivo was assessed.
(§3) Compound 14, 17 or vehicle was administered intraperitoneally to male C57BL/6 mice across a dose range of 3-50 mg/kg. After 4 hr, the mice were sacrificed and brain tissue analyzed by ABPP, generally as described in Example 16, with compound probe 58, HT-01 probe, and FP-Rh probe.

DAGLα [4] = target: T2, DAGLα (Mus musculus (Mouse), UniProt Q6WQJ1); experiment: in vivo inhibition, brain tissue analyzed by ABPP; conditions: male C57BL/6 mice, intraperitoneal, 4 hr; for ED50: mouse, ip
T2 sequence (Q6WQJ1 whole entry): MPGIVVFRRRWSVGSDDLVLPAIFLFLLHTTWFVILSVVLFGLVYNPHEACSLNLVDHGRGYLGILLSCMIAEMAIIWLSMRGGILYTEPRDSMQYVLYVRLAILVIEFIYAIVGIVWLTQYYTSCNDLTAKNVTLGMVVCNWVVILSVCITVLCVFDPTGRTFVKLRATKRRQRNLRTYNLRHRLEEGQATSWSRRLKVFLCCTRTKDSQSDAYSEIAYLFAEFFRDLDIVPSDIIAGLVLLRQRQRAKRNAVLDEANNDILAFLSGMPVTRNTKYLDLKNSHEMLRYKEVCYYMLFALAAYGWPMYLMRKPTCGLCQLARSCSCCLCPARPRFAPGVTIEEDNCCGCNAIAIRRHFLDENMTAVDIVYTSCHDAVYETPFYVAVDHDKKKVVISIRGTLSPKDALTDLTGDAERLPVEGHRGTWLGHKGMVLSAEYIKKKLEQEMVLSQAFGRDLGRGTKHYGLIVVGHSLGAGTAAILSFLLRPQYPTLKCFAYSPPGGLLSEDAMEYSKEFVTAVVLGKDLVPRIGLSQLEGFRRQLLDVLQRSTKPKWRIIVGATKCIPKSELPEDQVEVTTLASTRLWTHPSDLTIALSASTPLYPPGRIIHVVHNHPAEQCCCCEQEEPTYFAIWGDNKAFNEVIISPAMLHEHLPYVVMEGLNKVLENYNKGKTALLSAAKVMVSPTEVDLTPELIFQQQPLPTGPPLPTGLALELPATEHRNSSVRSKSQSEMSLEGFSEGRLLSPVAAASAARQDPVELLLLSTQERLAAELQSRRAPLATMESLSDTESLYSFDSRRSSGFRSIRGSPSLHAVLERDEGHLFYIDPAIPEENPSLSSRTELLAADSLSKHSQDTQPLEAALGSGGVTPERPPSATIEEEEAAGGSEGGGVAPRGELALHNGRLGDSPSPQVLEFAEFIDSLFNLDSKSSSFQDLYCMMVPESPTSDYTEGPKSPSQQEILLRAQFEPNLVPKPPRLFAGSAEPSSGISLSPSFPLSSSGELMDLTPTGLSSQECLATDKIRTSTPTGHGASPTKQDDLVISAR
Protocol: as §2, §3

DAGLβ [5] = target: T3, DAGLβ (Mus musculus (Mouse), UniProt Q91WC9); experiment: in vivo inhibition, brain tissue analyzed by ABPP; conditions: mice, intraperitoneal 3-50 mg/kg, 4 hr
T3 sequence (Q91WC9 whole entry): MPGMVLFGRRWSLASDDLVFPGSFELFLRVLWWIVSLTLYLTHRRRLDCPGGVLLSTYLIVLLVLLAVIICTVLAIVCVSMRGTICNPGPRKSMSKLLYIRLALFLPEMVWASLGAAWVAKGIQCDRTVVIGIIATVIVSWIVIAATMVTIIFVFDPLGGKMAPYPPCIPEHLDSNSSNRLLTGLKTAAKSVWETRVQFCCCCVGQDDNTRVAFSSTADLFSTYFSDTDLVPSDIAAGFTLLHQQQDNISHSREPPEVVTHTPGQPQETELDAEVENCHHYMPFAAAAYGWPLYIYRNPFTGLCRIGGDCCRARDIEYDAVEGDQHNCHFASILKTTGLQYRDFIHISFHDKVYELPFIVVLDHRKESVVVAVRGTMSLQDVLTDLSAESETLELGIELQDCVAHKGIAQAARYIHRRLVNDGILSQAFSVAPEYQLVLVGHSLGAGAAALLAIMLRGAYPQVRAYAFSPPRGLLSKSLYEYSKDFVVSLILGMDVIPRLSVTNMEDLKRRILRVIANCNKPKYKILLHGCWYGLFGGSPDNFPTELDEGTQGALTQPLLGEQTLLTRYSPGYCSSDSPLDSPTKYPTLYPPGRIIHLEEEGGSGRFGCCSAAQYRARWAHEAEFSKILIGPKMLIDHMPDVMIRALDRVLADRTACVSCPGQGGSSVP
Protocol: as §2, §3

ABHD6 [6] = target: T1, ABHD6; experiment: in vivo ABPP coupled to quantitative mass spectrometry (FP-biotin, ReDiMe); conditions: brain proteomes of treated mice
Protocol: (§4) The extent of these target profiles were confirmed by performing ABPP coupled to high-resolution, quantitative mass spectrometry (MS). Briefly, brain proteomes from compound and vehicle-treated mice were incubated with the serine hydrolase directed activity-based probe FP-biotin, and probe-labeled enzymes were enriched by streptavidin chromatography, digested on bead with trypsin, and the resulting tryptic peptides modified by reductive dimethylation (ReDiMe) of lysine residues using isotopically heavy and light formaldehyde, respectively. In these experiments, inhibited serine hydrolases are identified as enzymes showing low heavy/light ReDiMe ratios.

CES1C = CES1C (Mus musculus (Mouse), UniProt P23953); experiment: as above; conditions: brain proteomes of treated mice
CES1C, sequence (P23953 19-554): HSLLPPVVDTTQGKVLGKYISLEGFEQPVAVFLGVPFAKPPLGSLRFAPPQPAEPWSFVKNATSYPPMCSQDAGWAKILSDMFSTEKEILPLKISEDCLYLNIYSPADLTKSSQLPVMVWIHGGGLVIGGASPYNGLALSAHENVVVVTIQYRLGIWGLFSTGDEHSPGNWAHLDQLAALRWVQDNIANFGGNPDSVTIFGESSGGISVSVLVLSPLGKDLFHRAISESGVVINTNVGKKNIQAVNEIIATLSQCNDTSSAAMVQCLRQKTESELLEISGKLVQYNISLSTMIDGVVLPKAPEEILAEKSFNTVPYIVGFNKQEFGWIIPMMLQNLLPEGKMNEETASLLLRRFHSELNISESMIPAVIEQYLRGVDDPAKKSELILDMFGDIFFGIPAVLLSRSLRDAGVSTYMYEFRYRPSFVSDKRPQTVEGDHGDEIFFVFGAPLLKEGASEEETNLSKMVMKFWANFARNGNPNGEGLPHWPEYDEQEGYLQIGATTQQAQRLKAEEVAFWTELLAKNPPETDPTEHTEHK
Protocol: as §4

DAGLα [7] = target: T2, DAGLα; experiment: as above; conditions: brain proteomes of treated mice
Protocol: as §4

DAGLβ [8] = target: T3, DAGLβ; experiment: as above; conditions: brain proteomes of treated mice
Protocol: as §4

DAGLs = experiment: time-course of DAGL inhibition and recovery in mice, competitive ABPP with compound 58 probe; assay type: in vivo, mouse; conditions: 50 mg/kg
Protocol: Inhibition of DAGL in mice with DAGL compounds 14 and 17 was investigated as a function of time as determined by competitive ABPP using the compound 58 probe (1 μM, 30 min).

[9] = test system: brain 2-AG and other DAGL-regulated lipids; experiment: brain lipid profiles of treated mice by LC-MS; assay type: in vivo, mouse; conditions: for brain 2-AG levels / brain AA / brain AEA / brain C18:1/C20:4 DAG / brain PGD2 / brain PGE2 / brain SAG: 50 mg/kg i.p., 4 hr post-dosing
Protocol: Brain lipid profiles of mice treated with compounds 14, 17 and control compound 22.
Mice were treated with 50 mg/kg compound (i.p.), followed by lipid profiling using LC-MS at a 4 hr post-dosing. […] This depletion of brain 2-AG in compound 14 and 17-treated mice was dose-dependent (data not shown) and was observed within 2 h after injection. […] The changes in each lipid species were dose-dependent and were absent in compound 22 treated mice (FIGS. 6C, E, G, I, and K).

[10] = test system: DSE at parallel fiber to Purkinje cell synapses; experiment: depolarization-induced suppression of excitation (DSE) in acute cerebellar slices; conditions: purkinje; bath application to cerebellar slices 30 min before recordings; read-out: half-maximal inhibition of DSE
Description: Various forms of synaptic plasticity are regulated by 2-AG signaling, included depolarization-induced suppression of excitation (DSE) and inhibition (DSI). DSE was examined at parallel fiber (PF) to Purkinje cell (PC) synapses in acute cerebellar slices. A brief depolarization of PCs induced robust transient DSE at PF-PC synapses in vehicle treated cerebellar slices (FIG. 7A).

[11] = test system: DSI at CA1 pyramidal neuron synapses; experiment: depolarization-induced suppression of inhibition (DSI) in hippocampal slices; conditions: bath application 30 min
Protocol: DSI was evaluated at CA1 pyramidal neuron synapses in hippocampal slices. DSI was induced in vehicle-treated hippocampal slices by applying a brief depolarization while evoking […] through stimulation of synaptic inhibitory inputs (FIG. 7C). Bath application of compound 14 (10 μM) and compound 17 (1 μM), but not compound 22 (10 μM), for 30 min before starting electrophysiological recordings blocked hippocampal DSI (FIGS. 7C and D).

cannabinoid CB1 (CB1R) receptor, sequence (P21554 whole entry): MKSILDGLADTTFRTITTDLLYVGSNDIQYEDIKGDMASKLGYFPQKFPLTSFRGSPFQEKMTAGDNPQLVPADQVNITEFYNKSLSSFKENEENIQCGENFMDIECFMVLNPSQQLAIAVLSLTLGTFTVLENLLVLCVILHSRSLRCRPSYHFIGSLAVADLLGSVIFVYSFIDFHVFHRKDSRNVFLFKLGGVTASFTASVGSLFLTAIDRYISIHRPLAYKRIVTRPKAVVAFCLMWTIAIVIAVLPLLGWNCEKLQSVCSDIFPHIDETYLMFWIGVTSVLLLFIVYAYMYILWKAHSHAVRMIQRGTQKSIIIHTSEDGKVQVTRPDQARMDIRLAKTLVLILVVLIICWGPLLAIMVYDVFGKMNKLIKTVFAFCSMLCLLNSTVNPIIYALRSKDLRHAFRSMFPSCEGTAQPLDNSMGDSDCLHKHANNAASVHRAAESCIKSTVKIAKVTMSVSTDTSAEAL

| SMILES | inhibition of ABHD6 in vivo (ABHD6 [3]) | dose with full inhibition of DAGLα (DAGLα [4]) | ED50 (DAGLα [4]) | inhibition of DAGLβ in vivo (DAGLβ [5]) | heavy/light ReDiMe ratio, ABHD6 (off-target) (ABHD6 [6]) | heavy/light ReDiMe ratio, CES1C (off-target) (CES1C) | inhibition of DAGLα by quantitative MS (DAGLα [7]) | inhibition of DAGLβ by quantitative MS (DAGLβ [8]) | duration of sustained inhibition of DAGLs (DAGLs) | DAGL activity at 24-hr post dosing (DAGLs) | time after injection at which depletion of brain 2-AG was observed [9] | brain 2-AG levels [9] | brain AA [9] | brain AEA [9] | brain C18:1/C20:4 DAG [9] | brain PGD2 [9] | brain PGE2 [9] | brain SAG [9] | IC50 [10] | also measured |
| --- | --- | --- | --- | --- | --- | --- | --- | --- | --- | --- | --- | --- | --- | --- | --- | --- | --- | --- | --- | --- |
| C#CCO[C@@H]1CC[C@H](Cc2ccccc2)N(C(=O)n2ncc(C(O)(c3ccc(F)cc3)c3ccc(F)cc3)n2)C1 [Compound 14, ((2R,5R)-2-Benzyl-5-(prop-2-ynyloxy)piperidin-1-yl)(4-(bis(4-fluorophenyl)(hydroxy)methyl)-2H-1,2,3-triazol-2-yl)methanone] | inhibited | 30 to 50 mg/kg | 5 to 10 mg/kg | inhibited | < 0.5 | < 0.5 | complete inhibition | strongly | up to 8 hr | partial recovery | ≤ 2 h | reduced | reductions | reductions | elevations | reductions | reductions | elevations | 1100 nM | IC50 [1]: > 1000 nM; IC50 [2]: > 1000 nM; effect on hippocampal DSI ([11]; 10 μM): blocked |
| CC(C)(C)OC(=O)N1CCN(C(=O)n2cc(-c3ccc(OC(F)(F)F)cc3)nn2)C(Cc2ccccc2)C1 (centres unmarked) [Compound 17, tert-Butyl 3-benzyl-4-(4-(4-(trifluoromethoxy)phenyl)-1H-1,2,3-triazole-1-carbonyl)piperazine-1-carboxylate] | inhibited | 30 to 50 mg/kg | 5 to 10 mg/kg | inhibited | < 0.5 | < 0.5 | complete inhibition | partially | up to 8 hr | partial recovery | ≤ 2 h | reduced | reductions | reductions | elevations | reductions | reductions | elevations | 180 nM | IC50 ([1]; radioligand binding assay, read-out: IC50, CB1R binding): > 1000 nM; IC50 ([2]; radioligand binding assay, read-out: IC50, CB2R binding): > 1000 nM; effect on hippocampal DSI ([11]; 1 μM): blocked |
